# Measurements reported in patent US20040127467A1, “Synthesis of pancratistatin prodrugs” (priority 2003, published 2004).
# How the values were obtained:
# [1] = test system: U.S. National Cancer Institute (NCI) panel of cancer cell lines; conditions: cited from earlier work
# [2] = test system: RNA viruses; conditions: cited from earlier work
# [3] = test system: minipanel of human cancer cell lines; assay: minipanel of human cancer cell lines growth inhibition; format: cell-based; conditions: murine P388 and minipanel of human cancer cell lines (Table I)
# Procedure: All of the synthetic products were evaluated against the murine P388 lymphocytic leukemia cell line and a minipanel of human cancer cell lines.
# [4] = test system: murine P388 lymphocytic leukemia cell line; conditions: compared with pancratistatin (1a); cited from earlier work
# [5] = compared with pancratistatin (1a); cited from earlier work
structure (smiles),measurement,setting,value
"O=C1N[C@H]2[C@H](O)[C@H](O)[C@@H](O)[C@H](O)[C@@H]2c2cc3c(c(O)c21)OCO3 [1a, (+)-pancratistatin]",in vitro cancer cell growth inhibitory activities (in words),[1],strong
same,activity against a range of RNA viruses (in words),[2],activity against a range of RNA viruses
"O=C1N[C@H]2[C@H](O)[C@H](O)[C@@H](O)[C@H](O)[C@@H]2c2cc3c(c(OP(=O)([O-])[O-])c21)OCO3.[Na+].[Na+] [2a, Disodium 7-O-phosphoryl-pancratistatin]",cancer cell line activity (in words),[3],high activity
same,activity against the murine P388 lymphocytic leukemia cell (in words),[4],equal activity
same,solubility characteristics in water (in words),[5],greatly improved solubility characteristics in water
"C1COCCN1.O=C1NC2C(O)C(O)C(O)C(O)C2c2cc3c(c(OP(=O)(O)O)c21)OCO3 (stereo not drawn) [2k, Morpholine pancratistatin 7-O-phosphate]",water solubility (in words),,poor water solubility
